Entries after “also recorded” stand apart in the source; their conditions may differ. Where two headings read alike, the source gives them in different places.

Consider 3 compounds from patent US11992499B2, “Quinoline derivatives for use in the treatment of inflammation diseases” (ABIVAX, priority 2018, dated 2024).

The subject of experiment [1] is STAM model of non-alcoholic steatohepatitis. Briefly: STAM model of NASH: HE staining and NAFLD Activity score. More on the design: key to NAFLD Activity score (mean ± SD): NAFLD Activity score per Kleiner et al. 2005 criteria. The format is in vivo, mice. Here is the method: (§1) NASH was induced in 48 male mice by a single subcutaneous injection of 200 μg streptozotocin (STZ, Sigma-Aldrich, USA) solution 2 days after birth and feeding with high fat diet (HFD, 57 kcal % fat, Cat #HFD32, CLEA Japan, Inc., Japan) after 4 weeks of age. Compound A was administered at 3 dose levels of 10, 20 and 40 mg/kg once daily from 6 to 9 weeks of age. Compound B was administered at a dose of 40 mg/kg once daily from 6 to 9 weeks of age. Telmisartan was administered at a dose of 10 mg/kg once daily from 6 to 9 weeks of age. For HE staining, sections were cut from paraffin blocks of liver tissue prefixed in Bouin's solution and stained with Lillie-Mayer's Hematoxylin (Muto Pure Chemicals Co., Ltd., Japan) and eosin solution (FUJIFILM Wako Pure Chemical Corporation). NAFLD Activity score (NAS) was calculated according to the criteria of Kleiner (Kleiner D E. et al., Hepatology, 2005; 41:1313). To visualize collagen deposition, Bouin's fixed liver sections were stained using picro-Sirius red solution (Waldeck, Germany). For quantitative analysis of fibrosis area, bright field images of Sirius red-stained sections were captured around the central vein using a digital camera (DFC295; Leica, Germany) at 200-fold magnification, and the positive areas in 5 fields/section were measured using ImageJ software (National Institute of Health, USA).

Experiment [2] shares this test system. In kind it is in vivo. Particulars: for Liver weight (mean ± SD) / Liver-to-body weight ratio (mean ± SD): n = 8. The source says: To prepare dosing solution, Compound A and B were weighed and suspended in Vehicle which was composed of 20% of Vehicle-A1 and 80% of Vehicle-A2. Vehicle-A1 was composed of 0.5% (w/v) Carboxymethyl cellulose (CMC) 400-800 centipoises in water for injection+2.5% (w/v) Tween 80. Vehicle-A2 was composed of 0.5% (w/v) Carboxymethyl cellulose (CMC) 400-800 centipoises in water for injection. Telmisartan (Micardis®) was purchased from Boehringer Ingelheim GmbH (Germany) and dissolved in pure water.
(§2) NASH was induced in 48 male mice by a single subcutaneous injection of 200 μg streptozotocin (STZ, Sigma-Aldrich, USA) solution 2 days after birth and feeding with high fat diet (HFD, 57 kcal % fat, Cat #HFD32, CLEA Japan, Inc., Japan) after 4 weeks of age.
Compound A and B, and Telmisartan were administered orally in a volume of 10 mL/kg.
(§3) Compound A was administered at 3 dose levels of 10, 20 and 40 mg/kg once daily from 6 to 9 weeks of age. Compound B was administered at a dose of 40 mg/kg once daily from 6 to 9 weeks of age. Telmisartan was administered at a dose of 10 mg/kg once daily from 6 to 9 weeks of age.
C57BL/6 mice (14-day-pregnant female) were obtained from Japan SLC, Inc. (Japan). All animals used in the study were housed and cared for in accordance with the Japanese Pharmacological Society Guidelines for Animal Use.
Group 1: Vehicle Eight NASH mice were orally administered vehicle [20% of Vehicle-A1 and 80% of Vehicle-A2] in a volume of 10 mL/kg once daily from 6 to 9 weeks of age.
Eight NASH mice were orally administered vehicle supplemented with Compound A at a dose of 10 mg/kg once daily from 6 to 9 weeks of age.
Eight NASH mice were orally administered vehicle supplemented with Compound A at a dose of 20 mg/kg once daily from 6 to 9 weeks of age.
Eight NASH mice were orally administered vehicle supplemented with Compound A at a dose of 40 mg/kg once daily from 6 to 9 weeks of age.
Eight NASH mice were orally administered vehicle supplemented with Compound B at a dose of 40 mg/kg once daily from 6 to 9 weeks of age.
Eight NASH mice were orally administered pure water supplemented with Telmisartan at a dose of 10 mg/kg once daily from 6 to 9 weeks of age.
The viability, clinical signs and behavior were monitored daily. Body weight was recorded before the treatment. […] The animals were sacrificed at 9 weeks of age by exsanguination through direct cardiac puncture under isoflurane anesthesia (Pfizer Inc.).

Experiment [3] has the same test system. Briefly: STAM model of NASH: plasma ALT. The format is in vivo, mice. Conditions: for Plasma ALT (mean ± SD): n = 8. Here is the method:
NASH was induced in 48 male mice by a single subcutaneous injection of 200 μg streptozotocin (STZ, Sigma-Aldrich, USA) solution 2 days after birth and feeding with high fat diet (HFD, 57 kcal % fat, Cat #HFD32, CLEA Japan, Inc., Japan) after 4 weeks of age. Compound A was administered at 3 dose levels of 10, 20 and 40 mg/kg once daily from 6 to 9 weeks of age. Compound B was administered at a dose of 40 mg/kg once daily from 6 to 9 weeks of age. Telmisartan was administered at a dose of 10 mg/kg once daily from 6 to 9 weeks of age. For plasma biochemistry, non-fasting blood was collected in polypropylene tubes with anticoagulant (Novo-Heparin, Mochida Pharmaceutical Co. Ltd., Japan) and centrifuged at 1,000×g for 15 minutes at 4° C. The supernatant was collected and stored at −80° C. until use. Plasma ALT was measured by FUJI DRI-CHEM 7000 (Fujifilm, Japan).

For experiment [4] the test system is unchanged. Briefly: STAM model of NASH: liver triglyceride content. The format is in vivo, mice. Conditions: for Liver triglyceride (mean ± SD): n = 8. How it is done:
as §2, §3
Liver total lipid-extracts were obtained by Folch's method (Folch J. et al., J. Biol. Chem. 1957; 226: 497). Liver samples were homogenized in chloroform-methanol (2:1, v/v) and incubated overnight at room temperature. After washing with chloroform-methanol-water (8:4:3, v/v/v), the extracts were evaporated to dryness, and dissolved in isopropanol. Liver triglyceride content was measured by Triglyceride E-test (FUJIFILM Wako Pure Chemical Corporation, Japan).

Experiment [5] has the same test system. Briefly: STAM model of NASH: Sirius red staining, fibrosis area. The format is in vivo, mice. Conditions: for Sirius red-positive area (fibrosis area, mean ± SD): n = 8. How it is done: as §1
The test system is the same in experiment [6]. Kind of experiment: STAM model of NASH: Alpha-SMA immunostaining. In kind it is in vivo, mice. Conditions: for Alpha-SMA-positive area (mean ± SD): n = 8. Here is the method: NASH was induced in 48 male mice by a single subcutaneous injection of 200 μg streptozotocin (STZ, Sigma-Aldrich, USA) solution 2 days after birth and feeding with high fat diet (HFD, 57 kcal % fat, Cat #HFD32, CLEA Japan, Inc., Japan) after 4 weeks of age. Compound A was administered at 3 dose levels of 10, 20 and 40 mg/kg once daily from 6 to 9 weeks of age. Compound B was administered at a dose of 40 mg/kg once daily from 6 to 9 weeks of age. Telmisartan was administered at a dose of 10 mg/kg once daily from 6 to 9 weeks of age. […] (Table 9 herein after)

The test system is the same in experiment [7]. Kind of experiment: STAM model of NASH: F4/80 immunostaining. The format is in vivo, mice. Conditions: for F4/80-positive area (mean ± SD): n = 8. How it is done:
as §2, §3

[8] abbreviates: summary statement, dose not stated.
The mark [9] stands for this setting: 40 mg/kg PO QD (Compound A high, Compound B groups).
[10] abbreviates: 40 mg/kg PO QD, 6-9 wks of age (Compound A high, Compound B groups).
Where [11] appears, read: 40 mg/kg PO QD (Compound B group).
Where [12] appears, read: 40 mg/kg PO QD, 6-9 wks of age (Compound A high, Compound B groups), n = 8.
Setting [13] is: 10 mg/kg PO QD (Compound A low, Telmisartan groups).
The mark [14] stands for this setting: 10 mg/kg PO QD, 6-9 wks of age (Compound A low, Telmisartan groups).
Where [15] appears, read: 10 mg/kg PO QD (Telmisartan group).
Setting [16] is: 10 mg/kg PO QD, 6-9 wks of age (Compound A low, Telmisartan groups), n = 8.

Take `O=C(O)[C@H]1O[C@@H](N(c2ccc(OC(F)(F)F)cc2)c2ccc3cccc(Cl)c3n2)[C@H](O)[C@@H](O)[C@@H]1O` [drawing 253]: the “NAS compared with the Vehicle group” value in experiment [1] (setting [8]) is “decreasing trend”.

With `O=C(O)[C@H]1O[C@@H](N(c2ccc(OC(F)(F)F)cc2)c2ccc3cccc(Cl)c3n2)[C@H](O)[C@@H](O)[C@@H]1O` [Compound B], in experiment [2] (setting [9]), the “Mean liver weight compared with the Vehicle group” value is “tended to increase” and the “Mean liver-to-body weight ratio compared with the Vehicle group” value is “tended to increase”. Also, in experiment [2] (setting [10]), the “Liver weight (mean ± SD)” value was determined as 1606 ± 227 mg and the “Liver-to-body weight ratio (mean ± SD)” value came out at 8.1 ± 1.1%. Also, the “Plasma ALT level compared with the Vehicle group” value in experiment [3] (setting [9]) is “tended to increase; also recorded: increasing trends”. In experiment [3] (setting [10]), the “Plasma ALT (mean ± SD)” value worked out at 72 ± 24 U/L. For the same compound, in experiment [4] (setting [11]), the “Liver triglyceride content compared with the Vehicle group” value was “tended to increase; also recorded: increasing trends”. For the same compound, the “Liver triglyceride (mean ± SD)” value in experiment [4] (setting [10]) is 82.9 ± 32.6 mg/g liver. Also, the “NAS compared with the Vehicle group” value in experiment [1] (setting [9]) is on record as “tended to decrease; also recorded: decreasing trend”. In experiment [1] (setting [12]), the “Hepatocyte ballooning score 0 (None), number of mice” value was 5; the “Hepatocyte ballooning score 1 (Few balloon cells), number of mice” value was 2; the “Hepatocyte ballooning score 2 (Many cells/prominent ballooning), number of mice” value was 1; the “Lobular inflammation score 2 (2-4 foci/200×), number of mice” value was found to be 3. In experiment [1] (setting [12]), the “Lobular inflammation score 3 (>4 foci/200×), number of mice” value is 5; the “NAFLD Activity score (mean ± SD)” value is 3.6 ± 1.2; the “Steatosis score 0 (<5%), number of mice” value was found to be 4; the “Steatosis score 1 (5-33%), number of mice” value stood at 4. Moreover, the “Overall effect in this NASH model” value in experiment [1] (conclusion of the study) was “potential anti-NAS effect”. Also, the “NAS compared with the Vehicle group” value in experiment [1] (setting [8]) is “decreasing trends”. Further, in experiment [5] (setting [11]), the “Fibrosis area (Sirius red-positive area) compared with the Vehicle group” value is “tended to increase; also recorded: increasing trends”. Besides, the “Sirius red-positive area (fibrosis area, mean ± SD)” value in experiment [5] (setting [10]) is listed as 0.94 ± 0.23%. Also, the “Alpha-SMA-positive area (mean ± SD)” value in experiment [6] (setting [10]) worked out at 1.17 ± 0.79%. Further, in experiment [7] (setting [9]), the “F4/80-positive area compared with the Vehicle group” value is listed as “tended to decrease”. For the same compound, the “F4/80-positive area (mean ± SD)” value in experiment [7] (setting [10]) is reported as 1.90 ± 0.89%.

`CCCc1nc2c(C)cc(-c3nc4ccccc4n3C)cc2n1Cc1ccc(-c2ccccc2C(=O)O)cc1` [Telmisartan, reference compound]: in experiment [2] (setting [13]), the “Mean liver weight compared with the Vehicle group” value is recorded as “significant decrease” and the “Mean liver-to-body weight ratio compared with the Vehicle group” value is “tended to decrease”. In addition, in experiment [2] (setting [14]), the “Liver weight (mean ± SD)” value was 1115 ± 78 mg and the “Liver-to-body weight ratio (mean ± SD)” value came to 6.5 ± 0.4%. Besides, in experiment [3] (setting [13]), the “Plasma ALT level compared with the Vehicle group” value is “no significant difference”. For the same compound, in experiment [3] (setting [14]), the “Plasma ALT (mean ± SD)” value worked out at 56 ± 14 U/L. In addition, the “Liver triglyceride content compared with the Vehicle group” value in experiment [4] (setting [15]) was “tended to decrease; also recorded: decreasing trend”. Besides, the “Liver triglyceride (mean ± SD)” value in experiment [4] (setting [14]) was determined as 41.5 ± 16.9 mg/g liver. The “NAS compared with the Vehicle group” value in experiment [1] (setting [13]) is “significant decrease”. Besides, in experiment [1] (setting [16]), the “Hepatocyte ballooning score 0 (None), number of mice” value amounted to 7; the “Hepatocyte ballooning score 1 (Few balloon cells), number of mice” value turned out to be 1; the “Lobular inflammation score 2 (2-4 foci/200×), number of mice” value turned out to be 4; the “Lobular inflammation score 3 (>4 foci/200×), number of mice” value is 4. In experiment [1] (setting [16]), the “NAFLD Activity score (mean ± SD)” value was 2.8 ± 0.7; the “Steatosis score 0 (<5%), number of mice” value is reported as 7; the “Steatosis score 1 (5-33%), number of mice” value is 1. In experiment [5] (setting [14]), the “Sirius red-positive area (fibrosis area, mean ± SD)” value was 0.70 ± 0.13%. Further, in experiment [6] (setting [15]), the “Alpha-SMA-positive area compared with the Vehicle group” value is “tended to decrease”. In addition, the “Alpha-SMA-positive area (mean ± SD)” value in experiment [6] (setting [14]) is given as 0.83 ± 0.26%. The “F4/80-positive area (mean ± SD)” value in experiment [7] (setting [14]) is on record as 3.03 ± 0.95%.
